Source: PMC4118284 (Leukemia, 2012)
Where two headings read alike, the source gives them in different places.

Experiments:
[1] = tested on: newly diagnosed patients with FLT3-mutant AML; conditions: sorafenib plus induction chemotherapy; 15 newly diagnosed patients with FLT3-mutant AML; cited from earlier work
[2] = tested on: newly diagnosed patients with acute myeloid leukemia (AML); assay: Phase 1b trial: efficacy; type: in vivo, human
[3] = tested on: patients with FLT3-mutant and FLT3-wild-type AML; conditions: single agent, cited from earlier work; for Patients with ≥ 50% peripheral blood blast reduction: 75 mg three times daily or 50 mg or 100 mg twice daily
[4] = Plasma concentrations of midostaurin and metabolites; conditions: for Plasma concentration, Max / Plasma concentration, Median / Plasma concentration, Min: 50 mg BID
[5] = tested on: newly diagnosed patients with acute myeloid leukemia (AML); conditions: 50 mg twice daily; either arm
[6] = Concomitant (days 1-7 and 15-21), Induction cycle 1, day 1
[7] = Concomitant, First consolidation cycle, day 1.5
[8] = Concomitant, First consolidation cycle, day 15.5
[9] = Concomitant, First consolidation cycle, day 29.5
[10] = Concomitant, Induction cycle 1, Day 1 (+ 2 h)
[11] = Concomitant, Induction cycle 1, Day 1 (+ 4 h)
[12] = Concomitant, Induction cycle 1, day 2
[13] = Concomitant, Induction cycle 1, day 4
[14] = Concomitant, Induction cycle 1, day 15 (+ 2 h)
[15] = Concomitant, Induction cycle 1, day 15 (+ 4 h)
[16] = Sequential (days 8-21), Induction cycle 1, day 8
[17] = Sequential, First consolidation cycle, day 1.5
[18] = Sequential, First consolidation cycle, day 15.5
[19] = Sequential, First consolidation cycle, day 29.5
[20] = Sequential, Induction cycle 1, day 8 (+ 2 h)
[21] = Sequential, Induction cycle 1, day 8 (+ 4 h)
[22] = Sequential, Induction cycle 1, day 9
[23] = Sequential, Induction cycle 1, day 15
[24] = Sequential, Induction cycle 1, day 22.5
[25] = Sequential, Induction cycle 1, day 29.5

In the case of `CNC(=O)c1cc(Oc2ccc(NC(=O)Nc3ccc(Cl)c(C(F)(F)F)c3)cc2)ccn1` [Sorafenib], the CR rate [1] is given as 93%.
For `CO[C@@H]1[C@H](N(C)C(=O)c2ccccc2)C[C@H]2O[C@]1(C)n1c3ccccc3c3c4c(c5c6ccccc6n2c5c31)C(=O)NC4` [midostaurin, Midostaurin], the “Kaplan-Meier OS probability” value ([2]; 50 mg twice daily, FLT3-mutant AML, 1 year) was 0.85, the “Kaplan-Meier OS probability” value ([2]; 50 mg twice daily, FLT3-mutant AML, 2 years) was 0.62 and the “Complete remission (CR) rate” value ([2]; 50 mg twice daily, FLT3-mutant, 12 of 13 patients) was 92%. For the same molecule, the “Kaplan-Meier OS probability” value ([2]; 50 mg twice daily, FLT3-wild-type AML, 1 year) was 0.78, the “Kaplan-Meier OS probability” value ([2]; 50 mg twice daily, FLT3-wild-type AML, 2 years) was 0.52 and the “Complete remission (CR) rate” value ([2]; 50 mg twice daily, FLT3-wild-type, 20 of 27 patients) was 74%. The “Complete remission (CR) rate” value ([2]; 50 mg twice daily, concomitant group, 16 of 20 patients) was 80%, the “Patients who have died” value ([2]; 50 mg twice daily, of four patients with TKD mutations) was “none” and the “Complete remission (CR) rate” value ([2]; 50 mg twice daily, sequential group, 16 of 20 patients) was 80%. The Complete remission rate ([2]; 100 mg twice daily (dose schedules I and II), 13 of 29 patients) was 45%, the “Patients surviving more than 4 years” value ([2]; 100 mg twice daily, FLT3-mutant blasts, two patients) was 33% and the Complete remission rate ([2]; 100 mg twice daily, FLT3-wild-type blasts, 8 of 23) was 35%. The “Patients surviving more than 4 years” value ([2]; 100 mg twice daily, FLT3-wild-type blasts, nine patients) was 39%, the “Patients with ≥ 50% peripheral blood blast reduction” value ([3]; FLT3-mutant (n = 55)) was 70% and the “Patients with ≥ 50% peripheral blood blast reduction” value ([3]; FLT3-wild-type (n = 60)) was 42%. The “Complete remissions (CRs)” value [3] was “not observed”, the “Plasma concentration, Max” value [4, 6] was “LLOQ” and the “Plasma concentration, Median” value [4, 6] was “LLOQ”. For the same molecule, the “Plasma concentration, Min” value [4, 6] was “LLOQ”, the “Plasma concentration, Max” value [4, 7] was “LLOQ” and the “Plasma concentration, Median” value [4, 7] was “LLOQ”. For the same molecule, the “Plasma concentration, Min” value [4, 7] was “LLOQ”, the “Plasma concentration, Max” value [4, 8] was 1040 ng/mL and the “Plasma concentration, Min” value [4, 8] was “LLOQ”. For the same molecule, the “Plasma concentration, Max” value [4, 9] was 83.8 ng/mL, the “Plasma concentration, Median” value [4, 9] was “LLOQ” and the “Plasma concentration, Min” value [4, 9] was “LLOQ”. For the same molecule, the “Plasma concentration, Max” value [4, 10] was 2300 ng/mL, the “Plasma concentration, Median” value [4, 10] was 1170 ng/mL and the “Plasma concentration, Min” value [4, 10] was 355 ng/mL. The “Plasma concentration, Max” value [4, 11] was 3380 ng/mL, the “Plasma concentration, Median” value [4, 11] was 1010 ng/mL and the “Plasma concentration, Min” value [4, 11] was 630 ng/mL. The “Plasma concentration, Max” value [4, 12] was 4980 ng/mL, the “Plasma concentration, Median” value [4, 12] was 1490 ng/mL and the “Plasma concentration, Min” value [4, 12] was “LLOQ”. The “Plasma concentration, Max” value [4, 13] was 8710 ng/mL, the “Plasma concentration, Median” value [4, 13] was 2355 ng/mL and the “Plasma concentration, Min” value [4, 13] was 1680 ng/mL. The “Plasma concentration, Max” value [4, 14] was 7300 ng/mL, the “Plasma concentration, Median” value [4, 14] was 1870 ng/mL and the “Plasma concentration, Min” value [4, 14] was 87.1 ng/mL. The “Plasma concentration, Max” value [4, 15] was 7120 ng/mL, the “Plasma concentration, Median” value [4, 15] was 1420 ng/mL and the “Plasma concentration, Min” value [4, 15] was 96.3 ng/mL. The “Plasma concentration, Min” value ([4]; Concomitant, Induction cycle 1, day 22.5) was “LLOQ”, the “Plasma concentration, Min” value ([4]; Concomitant, Induction cycle 1, day 29.5) was “LLOQ” and the “Plasma concentration, Max” value [4, 16] was “LLOQ”. For the same molecule, the “Plasma concentration, Median” value [4, 16] was “LLOQ”, the “Plasma concentration, Min” value [4, 16] was “LLOQ” and the “Plasma concentration, Max” value [4, 17] was 91.2 ng/mL. For the same molecule, the “Plasma concentration, Median” value [4, 17] was “LLOQ”, the “Plasma concentration, Min” value [4, 17] was “LLOQ” and the “Plasma concentration, Max” value [4, 18] was 3790 ng/mL. For the same molecule, the “Plasma concentration, Median” value [4, 18] was 1330 ng/mL, the “Plasma concentration, Min” value [4, 18] was 635 ng/mL and the “Plasma concentration, Max” value [4, 19] was 4000 ng/mL. The “Plasma concentration, Min” value [4, 19] was “LLOQ”, the “Plasma concentration, Max” value [4, 20] was 2880 ng/mL and the “Plasma concentration, Median” value [4, 20] was 1495 ng/mL. The “Plasma concentration, Min” value [4, 20] was 460 ng/mL, the “Plasma concentration, Max” value [4, 21] was 3660 ng/mL and the “Plasma concentration, Median” value [4, 21] was 1585 ng/mL. The “Plasma concentration, Min” value [4, 21] was 635 ng/mL, the “Plasma concentration, Max” value [4, 22] was 3290 ng/mL and the “Plasma concentration, Median” value [4, 22] was 1680 ng/mL. The “Plasma concentration, Min” value [4, 22] was 922 ng/mL, the “Plasma concentration, Max” value [4, 23] was 17100 ng/mL and the “Plasma concentration, Median” value [4, 23] was 3660 ng/mL. The “Plasma concentration, Min” value [4, 23] was 1290 ng/mL, the “Plasma concentration, Max” value [4, 24] was 19200 ng/mL and the “Plasma concentration, Median” value [4, 24] was 2755 ng/mL. The “Plasma concentration, Min” value [4, 24] was 904 ng/mL, the “Plasma concentration, Max” value [4, 25] was 4970 ng/mL and the “Plasma concentration, Median” value [4, 25] was 57.2 ng/mL. The “Trough concentrations during off-treatment periods” value ([4]; midostaurin 50 mg twice daily) was “low or undetectable levels” and the “Deaths on treatment or within 28 days of the last dose of study drug” value [5] was “No deaths”.
